Experiments:
[1] = tested on: ischemic-reperfused myocardium; assay: FASTSPECT hot spot imaging and washout kinetics in ischemic-reperfused rat heart models (IR30, IR90); type: in vivo; set-up: half-time value (t1/2) of washout, late phase / half-time value (t1/2) of washout, early phase: unit not given here; conditions: for GLA hot spot size (% LV): 120-min image, mean ± SEM; for GLA hot spot size (% IAR): normalized to ischemic area at risk; for averaged ratio of whole-heart hot spot activity to normal myocardial activity: two hours after injection
Procedure: Ischemic-Reperfused Rat Heart Models were prepare from Male Sprague-Dawley rats (weight, 250-300 g) that were anesthetized with 1.0%-1.5% isoflurane. The model of myocardial ischemia-reperfusion was developed using know techniques. The rat was prepared by first removing the fur from the chest and neck region with electric clippers. The jugular vein was catheterized through a surgical procedure. An incision was made over the jugular furrow, and blunt and sharp dissection was used to isolate the jugular vein. A PE-10 catheter was advanced through a nick made by micro scissors and then secured by ligatures. After tracheotomy, the rats were ventilated using a volume-controlled Inspira Advanced Safety Ventilator (Harvard Apparatus, Inc.) with a mixture of oxygen and room air. Using each animal's weight, the tidal volume (1.2 mL/100 g) and respiration rate (65-70 breaths/min) were automatically calculated in Safe Range settings (Harvard Apparatus). With a left intercostals thoracotomy incision, the chest was opened at the fourth or fifth intercostal space. The pericardium was opened and the heart was exposed. A small, curved, tapered needle threaded 5-0 silk through the tissue between the pulmonary cone and the left auricular appendage. A ligature was placed around the LCA with a small amount of myocardium. The ligature was pulled tight by passing the suture through a polyethylene tubing and clamping it for coronary occlusion. After the LCA was occluded for 30 or 90 min, 30 min of reperfusion was achieved by releasing the ligature. Hydrochloride lidocaine (5%) was administered via intravenous injection and cardiac surface drop when ventricular fibrillation was induced by LCA occlusion or reflow. During the period of surgery and ischemia-reperfusion treatment, the body temperature of the animal was maintained with a heating pad. The chest of the rat was closed before the animal was imaged with FASTSPECT.
Eighteen rats were divided into 2 groups to receive regional myocardial ischemia-reperfusion treatments. Group 1 animals (IR30, n=12 [IR=ischemia-reperfusion]) were treated by ligating the LCA for 30 min and releasing the ligature for 30 min. The LCA in group 2 animals (IR90, n=6) was ligated for 90 min and then released for 30 min.
Radiopharmaceutical preparation; GLA kits were provided by Molecular Targeting Technologies Inc. The reagent in the vial was a sterile, nonpyrogenic, lyophilized composition of […], GLA, sodium bicarbonate, and hydrochloric acid. A vial of GLA was reconstituted by the addition of 1 mL of ^99mTc as sodium pertechnetate (no <2.59 GBq [no <70 mCi]) in accordance with the manufacturer's instructions. The solution in the vial was allowed to stand at room temperature for 15 min. ^99mTc-GLA radiochemical purity (RCP) was verified by thin-layer liquid chromatography using Gelman instant thin-layer silica gel (ITLC-SG) strips developed in saline and acetone. In the ITLC-SG strip developed by saline, ^99mTc-colloid remained at the origin while ^99mTc-GLA and ^99mTc-pertechnetate migrated near the solvent front. In the strip developed by acetone, ^99mTc-GLA and ^99mTc-colloid remained at the origin while ^99mTc-pertechnetate moved near the solvent front. The RCP of ^99mTc-GLA exceeded 95% for all experimental injections. ^99mTc-GLA was used within 3 h after preparation.
The high-resolution stationary SPECT system, FASTSPECT, was built in the Department of Radiology Research Laboratory at The University of Arizona (as described by references 9-11 in Liu et. al, J. Nucl. Med. (2004), vol. 45, pp 1251-1259). In this system, 24 small modular γ cameras are arranged in 2 circular arrays with a cylindric aperture. […] Twenty-four 1-mm diameter pinholes were drilled in the aperture such that a point source in the center of the field of view (FOV) is simultaneously projected to the center of each camera. The dead space between adjacent cameras at the director surface is 7% of the total area. […]

MCF7/D40 tumors = assay: Biodistribution in mice bearing MCF7/D40 tumors; type: in vivo, SCID mice
Procedure: Tumor cell lines used. MCF7/S: Cells are parental, drug (doxorubicin) sensitive, breast carcinoma cells. MCF7/D40: Cells were generated in vitro by successive culturing parental MCF7 cells in slowly increasing concentrations of doxorubicin with a total selection time of 31 months. Twenty-eight SCID mice were studied. MCF7/S or MCF7/D40 tumors were grown for 10-14 days after subcutaneous injection of 1×10^6 cells into the right thigh. Groups of mice with the xenografted tumors included: (MCF7/S group: MIBI: n=9; GLA: n=8) and (MCF7/D40 group: MIBI: n=6; GLA: n=5).
^99mTc-GLA or ^99mTc-MIBI (5-8 mCi, 185-296 MBq) was injected via a jugular vein catheter. Dynamic images were acquired for 2 hours. Twenty-four projections were obtained, one from each camera. Each scintillation event within the camera's NaI crystal was registered as the digitized outputs from the camera's four photomultiplier tubes. The four photomultiplier outputs were compared to a 20-bit look-up table derived from a calibration procedure that involved moving a collimated source across the camera face.
Tumors and organs were harvested and counted in a dose calibrator. The percent injected dose per gram (% ID/g) was calculated. Membrane preparations made from MCF7/S and MCF7/D40 tumors were immunoblotted with the mouse monoclonal antibody C219 against Pgp followed by a secondary antibody, which was detected by chemiluminescence. […] No immunodetectable MDR1 Pgp was presented in MCF7/S cells.

[2] = Table 2, MCF7/D40 mice, 2 hours after injection
[3] = Table 4 (Example 3), MCF7/D40 mice

^99mTc-glucarate
GLA hot spot size (% LV) ([1]; IR30 (n = 12)): 28.4 ± 2.1 % LV
GLA hot spot size (% IAR) ([1]; IR30 (n = 12)): 58.4 ± 2.7 % IAR
time after injection the infarct remained well defined ([1]; IR30 and IR90 hearts): at least 120 min
hot spot/normal ratio in group 1 (IR30) relative to group 2 (IR90), fold lower ([1]; IR30 vs IR90): 1.94 fold
GLA hot spot size (% LV) ([1]; IR90 (n = 6)): 42.0 ± 2.6 % LV
GLA hot spot size (% IAR) ([1]; IR90 (n = 6)): 75.9 ± 2.7 % IAR
final ratio of hot spot to normal myocardial activity ([1]; group 1 (IR30)): 4.91±0.71
averaged ratio of whole-heart hot spot activity to normal myocardial activity ([1]; group 1 (IR30)): 4.1±0.3
final ratio of hot spot to normal myocardial activity ([1]; group 2 (IR90)): 9.53±1.76
averaged ratio of whole-heart hot spot activity to normal myocardial activity ([1]; group 2 (IR90)): 7.1±1.1
half-time value (t1/2) of washout, early phase ([1]; hot spot, IR30): 2.4±0.4
half-time value (t1/2) of washout, late phase ([1]; hot spot, IR30): 216.3±23.8
fractional retention (% peak) by the end of experiment ([1]; hot spot, IR30 (30-min LCA occlusion, 30-min reperfusion), 2 h): 31.0±1.3 % peak
half-time value (t1/2) of washout, early phase ([1]; hot spot, IR90): 3.8±1.1
half-time value (t1/2) of washout, late phase ([1]; hot spot, IR90): 511.5±74.2
fractional retention (% peak) by the end of experiment ([1]; hot spot, IR90 (90-min LCA occlusion, 30-min reperfusion), 2 h): 42.1±4.0 % peak
half-time value (t1/2) of washout, early phase ([1]; normal zone, IR30): 1.6±0.4
half-time value (t1/2) of washout, late phase ([1]; normal zone, IR30): 66.6±5.5
fractional retention (% peak) by the end of experiment ([1]; normal zone, IR30, 2 h): 7.5±1.0 % peak
half-time value (t1/2) of washout, early phase ([1]; normal zone, IR90): 2.0±0.2
half-time value (t1/2) of washout, late phase ([1]; normal zone, IR90): 49.1±2.9
fractional retention (% peak) by the end of experiment ([1]; normal zone, IR90, 2 h): 6.4±0.9 % peak
tumor-to-muscle ratio relative to that for 99mTc-sestamibi (fold higher) (MCF7/D40 tumors; MCF7/D40 tumors, 2 hours after injection): 19.2 fold
Biodistribution, blood (MCF7/D40 tumors; [2]): 1.07 ± 0.14 % ID/gm
Biodistribution, heart (MCF7/D40 tumors; [2]): 0.55 ± 0.10 % ID/gm
Biodistribution, kidneys (MCF7/D40 tumors; [2]): 22.10 ± 1.59 % ID/gm
Biodistribution, liver (MCF7/D40 tumors; [2]): 1.56 ± 0.18 % ID/gm
Biodistribution, lung (MCF7/D40 tumors; [2]): 1.41 ± 0.54 % ID/gm
Biodistribution, muscle (MCF7/D40 tumors; [2]): 0.25 ± 0.04 % ID/gm
Biodistribution, tumor (MCF7/D40 tumors; [2]): 1.39 ± 0.12 % ID/gm
Biodistribution, blood (MCF7/D40 tumors; [3]): 1.07 ± 0.14 % ID/g
Biodistribution, heart (MCF7/D40 tumors; [3]): 0.55 ± 0.1 % ID/g
Biodistribution, kidneys (MCF7/D40 tumors; [3]): 22.10 ± 1.59 % ID/g
Biodistribution, liver (MCF7/D40 tumors; [3]): 1.56 ± 0.18 % ID/g
Biodistribution, lung (MCF7/D40 tumors; [3]): 1.41 ± 0.54 % ID/g
Biodistribution, muscle (MCF7/D40 tumors; [3]): 0.25 ± 0.04 % ID/g
Biodistribution, tumor (MCF7/D40 tumors; [3]): 1.39 ± 0.12 % ID/g
Tumor/Blood ratio (MCF7/D40 tumors; [3]): 1.38 ± 0.19
Tumor/Muscle ratio (MCF7/D40 tumors; [3]): 6.23 ± 0.89
mean tumor-to-muscle ratio (MCF7/D40 tumors; drug-resistant tumors (MCF7/D40)): 6.2
